Laboratory results taken from ChEMBL document CHEMBL1150193, “Euglobal T1, a New Euglobal from Eucalyptus tereticornis” (J Nat Prod, 1991).
Calls of active or inactive are those of the source. No cut-off for these calls is given here.

Tested on: human gammaherpesvirus 4
Assay: Inhibition of Epstein-Barr virus early antigen activation

| Activity | SMILES |
| --- | --- |
| inactive | CC(C)CC(=O)c1c(O)c(C=O)c(O)c2c1O[C@]1(C)C=C[C@@H](C(C)C)C[C@@H]1C2 |
| inactive | CC(C)CC(=O)c1c(O)c(C=O)c2c(c1O)C[C@H]1C[C@H](C(C)C)C=C[C@@]1(C)O2 |
